Values after ≈ are worked out from the molar mass of the structure shown. Read-outs that look alike come from different tables or passages of the source. Blank lines part the entries; values can stand above or below the compound they belong to.
Columns and labels:
[1] = target: T1, full-length human HDAC11 (Homo sapiens (Human), UniProt Q96DB2); assay: HDAC11 deacetylase electrophoretic mobility shift assay (Nanosyn); format: biochemical; details: for IC50: mobility shift assay
Experimental: The measurement of HD AC 11 deacetylase activity was performed using an electrophoretic mobility shift assay by Nanosyn (Santa Clara, Calif.). Full length human recombinant HD AC 11 protein was expressed in baculoviral system and purified by affinity chromatography. The enzymatic reactions were assembled in 384 well plates in a total volume of 25 μL in a reaction buffer composing: 100 mM HEPES, pH 7.5, 25 mM KCl, 0.1% bovine serum albumin, 0.01% Triton X-100, 1% DMSO (from compounds), 2 μM of the fluorescently labeled peptide substrate and enzyme. The enzyme was added at a final concentration of 10 nM. The peptide substrate FAM-RHKK(tri-fluor-Ac)—NH2 was used. The compounds were tested at 12 concentrations spaced by 3× dilution intervals. Negative control samples (0%-inhibition in the absence of inhibitor) and positive control samples (100%-inhibition) were assembled in replicates of four in each assay plate. The reactions were incubated at 25° C. and quenched by the addition of 45 μL of termination buffer (100 mM HEPES, pH 7.5, 0.01% Triton X-100, 0.05% SDS).
The terminated assay plates were analyzed on LabChip® 3000 microfluidic electrophoresis instrument (Perkin Elmer/Caliper Life Sciences). The fluorescence intensity of the electrophoretically separated de-acetylated product and substrate peptide was measured. Activity in each sample was determined as the product to sum ratio (PSR): P/(S+P), where P is the peak height of the product peptide and S is the peak height of the substrate peptide. Percent inhibition (Pinh) is determined using the following equation: Pinh=(PSR0%−PSRinh)/(PSR0%−PSR100%)*100, where PSRinh, is the product sum ratio in the presence of inhibitor, PSR0% is the average product sum ration in the absence of inhibitor and PSR100% is the average product sum ratio in 100%-inhibition control samples. The IC50 values of inhibitors were determined by fitting the percent inhibition curves with 4 parameter dose-response model using XLfit 4 software.

[2] = target: HDAC6 (Homo sapiens (Human), UniProt Q9UBN7); assay: HDAC6 electrophoretic mobility shift assay; format: biochemical; details: mobility shift assay, Table 7; read-out: HDAC IC50, HDAC 6
[3] = target: HDAC1 (Homo sapiens (Human), UniProt Q13547); assay: HDAC1 electrophoretic mobility shift assay; format: biochemical; details: Table 7, read-out: HDAC IC50, HDAC 1
Chain of HDAC1 (Q13547 whole entry): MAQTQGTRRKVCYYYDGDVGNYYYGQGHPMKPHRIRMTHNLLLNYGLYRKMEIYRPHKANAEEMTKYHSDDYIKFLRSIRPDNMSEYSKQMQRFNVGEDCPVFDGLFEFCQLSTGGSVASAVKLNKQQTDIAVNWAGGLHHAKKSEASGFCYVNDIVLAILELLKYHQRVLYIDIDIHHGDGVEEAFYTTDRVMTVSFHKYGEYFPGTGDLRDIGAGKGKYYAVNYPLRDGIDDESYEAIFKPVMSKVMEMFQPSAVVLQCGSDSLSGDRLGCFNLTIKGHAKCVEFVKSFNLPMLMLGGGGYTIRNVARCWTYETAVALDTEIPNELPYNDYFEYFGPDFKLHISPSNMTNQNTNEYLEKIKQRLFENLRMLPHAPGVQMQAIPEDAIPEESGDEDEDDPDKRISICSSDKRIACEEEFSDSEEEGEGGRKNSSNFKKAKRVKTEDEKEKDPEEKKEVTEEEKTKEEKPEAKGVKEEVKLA

[4] = target: HDAC2 (Homo sapiens (Human), UniProt Q92769); assay: HDAC2 electrophoretic mobility shift assay; format: biochemical; details: Table 7, read-out: HDAC IC50, HDAC 2
[5] = target: HDAC3 (Homo sapiens (Human), UniProt O15379); assay: HDAC3 electrophoretic mobility shift assay; format: biochemical; details: Table 7, read-out: HDAC IC50, HDAC 3
[6] = target: HDAC4 (Homo sapiens (Human), UniProt P56524); assay: HDAC4 electrophoretic mobility shift assay; format: biochemical; details: Table 7, read-out: HDAC IC50, HDAC 4
[7] = target: HDAC5 (Homo sapiens (Human), UniProt Q9UQL6); assay: HDAC5 electrophoretic mobility shift assay; format: biochemical; details: Table 7, read-out: HDAC IC50, HDAC 5
Chain of HDAC5 (Q9UQL6 whole entry): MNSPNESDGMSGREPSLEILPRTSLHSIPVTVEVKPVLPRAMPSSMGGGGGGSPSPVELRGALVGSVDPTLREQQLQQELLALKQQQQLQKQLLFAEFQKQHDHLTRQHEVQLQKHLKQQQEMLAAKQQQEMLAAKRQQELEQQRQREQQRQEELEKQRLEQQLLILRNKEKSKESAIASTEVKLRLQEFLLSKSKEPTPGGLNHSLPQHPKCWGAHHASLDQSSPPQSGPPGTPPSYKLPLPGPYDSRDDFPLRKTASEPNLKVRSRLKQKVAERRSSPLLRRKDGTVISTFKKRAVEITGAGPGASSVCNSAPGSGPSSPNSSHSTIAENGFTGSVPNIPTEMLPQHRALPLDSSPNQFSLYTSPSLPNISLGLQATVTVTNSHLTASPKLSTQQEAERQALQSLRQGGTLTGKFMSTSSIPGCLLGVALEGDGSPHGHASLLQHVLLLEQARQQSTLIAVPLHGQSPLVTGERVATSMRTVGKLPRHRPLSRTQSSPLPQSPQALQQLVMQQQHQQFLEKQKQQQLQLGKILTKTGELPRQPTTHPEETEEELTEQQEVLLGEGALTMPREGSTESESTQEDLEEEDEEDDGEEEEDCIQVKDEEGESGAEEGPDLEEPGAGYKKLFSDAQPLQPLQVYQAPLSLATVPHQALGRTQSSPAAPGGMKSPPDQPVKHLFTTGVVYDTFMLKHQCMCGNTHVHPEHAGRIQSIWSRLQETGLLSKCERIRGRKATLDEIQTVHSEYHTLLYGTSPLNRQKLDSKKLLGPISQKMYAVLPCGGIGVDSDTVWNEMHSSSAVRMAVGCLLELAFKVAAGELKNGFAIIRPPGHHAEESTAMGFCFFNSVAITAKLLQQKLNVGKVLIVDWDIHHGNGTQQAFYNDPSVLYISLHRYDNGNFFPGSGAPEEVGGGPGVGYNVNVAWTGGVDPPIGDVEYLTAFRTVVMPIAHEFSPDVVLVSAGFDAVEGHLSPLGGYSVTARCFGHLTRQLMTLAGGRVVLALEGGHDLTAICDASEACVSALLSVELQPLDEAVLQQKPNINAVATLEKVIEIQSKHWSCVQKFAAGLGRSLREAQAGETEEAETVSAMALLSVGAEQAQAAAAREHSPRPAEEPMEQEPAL

[8] = target: HDAC7 (Homo sapiens (Human), UniProt Q8WUI4); assay: HDAC7 electrophoretic mobility shift assay; format: biochemical; details: Table 7, read-out: HDAC IC50, HDAC 7
Chain of HDAC7 (Q8WUI4 whole entry): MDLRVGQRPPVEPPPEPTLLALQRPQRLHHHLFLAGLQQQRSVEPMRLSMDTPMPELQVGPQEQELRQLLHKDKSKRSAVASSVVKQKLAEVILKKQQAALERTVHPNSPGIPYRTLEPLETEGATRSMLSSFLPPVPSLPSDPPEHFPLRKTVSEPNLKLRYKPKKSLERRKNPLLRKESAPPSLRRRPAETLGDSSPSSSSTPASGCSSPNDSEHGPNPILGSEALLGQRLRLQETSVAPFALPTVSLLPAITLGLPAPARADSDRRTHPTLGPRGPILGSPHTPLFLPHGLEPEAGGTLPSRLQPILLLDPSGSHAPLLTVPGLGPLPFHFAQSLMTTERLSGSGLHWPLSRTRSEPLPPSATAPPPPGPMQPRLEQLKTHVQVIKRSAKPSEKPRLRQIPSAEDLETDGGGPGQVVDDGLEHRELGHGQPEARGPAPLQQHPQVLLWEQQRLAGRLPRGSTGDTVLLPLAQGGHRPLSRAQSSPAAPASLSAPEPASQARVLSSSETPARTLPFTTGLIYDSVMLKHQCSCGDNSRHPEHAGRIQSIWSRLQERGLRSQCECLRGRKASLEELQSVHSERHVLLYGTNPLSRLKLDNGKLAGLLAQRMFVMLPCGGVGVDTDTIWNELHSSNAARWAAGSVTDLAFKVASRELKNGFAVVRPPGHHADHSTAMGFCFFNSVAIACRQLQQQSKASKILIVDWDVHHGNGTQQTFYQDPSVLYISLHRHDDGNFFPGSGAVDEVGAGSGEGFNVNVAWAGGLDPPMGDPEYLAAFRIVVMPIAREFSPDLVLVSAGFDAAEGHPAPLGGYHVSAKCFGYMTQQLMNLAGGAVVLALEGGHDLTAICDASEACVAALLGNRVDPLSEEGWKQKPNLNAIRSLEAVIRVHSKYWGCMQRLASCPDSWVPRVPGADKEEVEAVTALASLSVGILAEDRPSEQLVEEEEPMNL

[9] = target: HDAC8 (Homo sapiens (Human), UniProt Q9BY41); assay: HDAC8 electrophoretic mobility shift assay; format: biochemical; details: Table 7, read-out: HDAC IC50, HDAC 8
Chain of HDAC8 (Q9BY41 whole entry, species assumed): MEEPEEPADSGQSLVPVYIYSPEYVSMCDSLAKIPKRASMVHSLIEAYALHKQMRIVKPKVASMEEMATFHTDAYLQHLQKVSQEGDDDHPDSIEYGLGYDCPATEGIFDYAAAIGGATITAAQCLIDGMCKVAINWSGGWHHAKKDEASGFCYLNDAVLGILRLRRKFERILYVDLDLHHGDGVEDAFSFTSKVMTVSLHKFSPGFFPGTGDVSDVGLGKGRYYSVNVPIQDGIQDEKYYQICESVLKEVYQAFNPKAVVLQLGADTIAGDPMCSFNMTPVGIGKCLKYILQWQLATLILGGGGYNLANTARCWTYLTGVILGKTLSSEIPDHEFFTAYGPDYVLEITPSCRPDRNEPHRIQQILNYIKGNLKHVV

[10] = target: HDAC9 (Homo sapiens (Human), UniProt Q9UKV0); assay: HDAC9 electrophoretic mobility shift assay; format: biochemical; details: Table 7, read-out: HDAC IC50, HDAC 9
Chain of HDAC9 (Q9UKV0 whole entry): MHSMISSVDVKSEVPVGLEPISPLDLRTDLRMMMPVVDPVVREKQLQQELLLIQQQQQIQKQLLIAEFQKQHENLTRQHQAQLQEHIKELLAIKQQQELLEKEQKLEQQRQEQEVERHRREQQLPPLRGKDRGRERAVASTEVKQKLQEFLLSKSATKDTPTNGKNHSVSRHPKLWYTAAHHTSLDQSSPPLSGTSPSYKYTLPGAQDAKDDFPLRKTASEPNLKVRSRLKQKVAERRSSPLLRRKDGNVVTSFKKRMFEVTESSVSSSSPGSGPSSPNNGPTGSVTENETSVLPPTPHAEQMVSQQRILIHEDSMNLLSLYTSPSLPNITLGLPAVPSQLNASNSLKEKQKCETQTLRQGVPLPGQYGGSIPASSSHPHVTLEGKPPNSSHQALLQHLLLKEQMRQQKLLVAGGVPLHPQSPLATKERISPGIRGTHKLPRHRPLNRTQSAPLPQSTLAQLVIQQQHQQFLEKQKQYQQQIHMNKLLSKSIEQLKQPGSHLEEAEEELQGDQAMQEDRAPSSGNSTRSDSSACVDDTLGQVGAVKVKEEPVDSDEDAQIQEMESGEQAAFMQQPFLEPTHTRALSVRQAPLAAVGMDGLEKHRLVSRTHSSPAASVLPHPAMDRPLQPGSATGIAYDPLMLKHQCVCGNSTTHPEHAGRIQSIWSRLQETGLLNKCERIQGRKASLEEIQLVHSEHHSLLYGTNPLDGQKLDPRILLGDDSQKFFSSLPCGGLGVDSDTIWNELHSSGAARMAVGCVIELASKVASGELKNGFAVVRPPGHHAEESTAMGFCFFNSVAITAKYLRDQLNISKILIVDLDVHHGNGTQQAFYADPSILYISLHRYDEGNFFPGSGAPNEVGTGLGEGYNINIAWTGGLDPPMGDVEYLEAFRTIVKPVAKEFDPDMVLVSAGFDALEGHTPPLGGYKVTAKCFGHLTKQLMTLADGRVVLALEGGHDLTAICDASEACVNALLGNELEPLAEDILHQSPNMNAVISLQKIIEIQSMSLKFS

[11] = target: HDAC10 (Homo sapiens (Human), UniProt Q969S8); assay: HDAC10 electrophoretic mobility shift assay; format: biochemical; details: Table 7, read-out: HDAC IC50, HDAC 10
Chain of HDAC10 (Q969S8 whole entry): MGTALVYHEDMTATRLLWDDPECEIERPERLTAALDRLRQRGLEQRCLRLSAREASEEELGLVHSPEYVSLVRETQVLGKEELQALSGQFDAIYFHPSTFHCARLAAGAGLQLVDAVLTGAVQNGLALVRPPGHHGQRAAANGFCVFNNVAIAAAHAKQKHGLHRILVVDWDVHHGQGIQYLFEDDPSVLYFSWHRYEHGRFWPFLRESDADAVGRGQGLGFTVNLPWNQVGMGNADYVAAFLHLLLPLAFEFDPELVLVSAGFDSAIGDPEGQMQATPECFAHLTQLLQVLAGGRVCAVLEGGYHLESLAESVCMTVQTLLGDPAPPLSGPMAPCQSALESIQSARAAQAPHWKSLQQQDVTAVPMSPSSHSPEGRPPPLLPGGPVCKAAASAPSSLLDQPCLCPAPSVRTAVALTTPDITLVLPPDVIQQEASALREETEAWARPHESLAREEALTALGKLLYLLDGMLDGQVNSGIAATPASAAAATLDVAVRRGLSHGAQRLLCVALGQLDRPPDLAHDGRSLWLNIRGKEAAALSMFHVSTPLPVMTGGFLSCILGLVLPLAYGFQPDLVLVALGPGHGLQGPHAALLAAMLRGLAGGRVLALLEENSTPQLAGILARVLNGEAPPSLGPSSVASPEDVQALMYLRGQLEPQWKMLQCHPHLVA

[12] = In vitro intrinsic clearance after incubation with mouse liver microsomes; format: in vitro ADME; details: Table 6
[13] = target: HDAC11 (Homo sapiens (Human), UniProt Q96DB2); assay: Lipophilic efficiency (pIC50 HDAC11 - clogD7.4); details: pIC50 HDAC11 - clogD7.4, Table 6
Chain of HDAC11 (Q96DB2 whole entry): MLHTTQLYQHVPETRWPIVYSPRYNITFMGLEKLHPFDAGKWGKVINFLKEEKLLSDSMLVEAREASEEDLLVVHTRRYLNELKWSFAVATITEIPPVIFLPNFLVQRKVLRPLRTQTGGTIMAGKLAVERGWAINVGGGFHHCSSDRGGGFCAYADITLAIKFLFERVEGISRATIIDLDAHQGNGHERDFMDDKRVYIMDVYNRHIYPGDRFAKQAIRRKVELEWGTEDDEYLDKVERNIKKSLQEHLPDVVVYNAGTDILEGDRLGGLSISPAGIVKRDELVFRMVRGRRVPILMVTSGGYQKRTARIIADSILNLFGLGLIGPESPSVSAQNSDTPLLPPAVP

[14] = Kinetic solubility at pH 7.4; format: physicochemical; details: aqueous buffer, kinetic from dmso stock
[15] = tested on: other 10 members of the HDAC family; assay: HDAC family selectivity profile, electrophoretic mobility shift assays; format: biochemical, human; details: HDAC 1-11 profile
[16] = target: HDAC11 fused to Nanoluc luciferase (Homo sapiens (Human), UniProt Q96DB2); assay: BRET target engagement cell assay
Chain of HDAC11 fused to Nanoluc luciferase (Q96DB2 whole entry, the tested form may be a part): as the sequence (Q96DB2 whole entry) above

[17] = Mouse pharmacokinetic study (i.v. and i.p.); format: in vivo
Experimental: Based on its overall in vitro profile, 22-8 was advanced to mouse PK studies to measure its suitability as an in vivo tool compound. The pharmacokinetic properties of 22-8 were assessed in male Balb/c nude mice following both intravenous (i.v.) and intraperitoneal (i.p.) dosing (Table 8).

[18] = target: T1, full-length human HDAC11; assay: Probe binding HDAC11 time resolved fluorescence (TRF) assay; details: Table 2, read-out: HDAC11 IC50 Range
[19] = IP 5 mg/kg, male Balb/c nude mice
[20] = mouse, in vivo, IP 5 mg/kg, male Balb/c nude mice
[21] = mouse, in vivo, IV 1 mg/kg, male Balb/c nude mice

T1 sequence (Q96DB2 whole entry): as above

HDAC11 potency, in words ([1]; comparison with parent or lead compound): loss of all HDAC11 activity
IC50 ([1]; Table 6, read-out: HDAC11 IC50): > 1000 nM
IC50 ([1]; Table 7, read-out: HDAC IC50, HDAC 11): > 1000 nM
IC50 [2]: > 1000 nM
IC50 [3]: > 1000 nM
IC50 [4]: > 1000 nM
IC50 [5]: > 1000 nM
IC50 [6]: > 1000 nM
IC50 [7]: > 1000 nM
IC50 [8]: > 1000 nM
IC50 [9]: > 1000 nM
IC50 [10]: > 1000 nM
IC50 [11]: > 1000 nM
microsomal CLint [12]: < 50 µL/min/mg
LipE [13]: + (indicates LipE≤5.5)
solubility [14]: ≤ 30 µM
IC50 [16]: > 1000 nM
Structure (SMILES): CC1(C)c2cccc(C(N)=O)c2CN1c1cnc(C(F)(F)F)cn1 [Compound 50-1, 1,1-Dimethyl-2-(5-(trifluoromethyl)pyrazin-2-yl)isoindoline-4-carboxamide]
activity against all HDACs, in words [15]: inactive against all HDACs

IC50 [7]: > 1000 nM
IC50 [8]: > 1000 nM
IC50 [10]: > 1000 nM
microsomal CLint [12]: < 50 µL/min/mg
solubility [14]: 30 to 55 µM (≈ 10.6 to 19.4 µg/mL)
Bioavailability [17, 19]: 81 % F
t1/2 [17, 19]: 10.2 h
t1/2 ([17]; IV 1 mg/kg, male Balb/c nude mice): 9.4 h
AUC(0-t) [17, 20]: 3.8 µM·h
Cmax [17, 20]: 4.2 µM
half-life [17, 20]: 10.2 h
AUC(0-t) [17, 21]: 1 µM·h
C0 [17, 21]: 3.5 µM
clearance [17, 21]: 42 mL/min/kg
half-life [17, 21]: 9.4 h
Vd ([17]; mouse, in vivo, IV 1 mg/kg, male Balb/c nude mice, read-out: Vss): 18 L/kg
time free drug levels maintained over the cellular IC50 ([17]; single 5 mg/kg i.p. dose, mice): up to 4 h
Structure (SMILES): CC1(C)c2cccc(C(=O)NO)c2CN1c1cnc(C(F)(F)F)cn1 [Compound 22-8, N-Hydroxy-1,1-dimethyl-2-(5-(trifluoromethyl)pyrazin-2-yl)isoindoline-4-carboxamide]

Structure (SMILES): CC1(C)c2cccc(C(=O)NO)c2CN1c1nc2ncccc2o1 [Compound 18-2, N-hydroxy-1,1-dimethyl-2-(oxazolo[4,5-b]pyridin-2-yl)isoindoline-4-carboxamide]
IC50 [18]: < 500 nM
IC50 ([1]; Table 6, read-out: HDAC11 IC50): < 500 nM
microsomal CLint [12]: < 50 µL/min/mg
LipE [13]: +++ (indicates a LipE>6.5)
solubility [14]: > 55 µM
IC50 ([16]; read-out: HDAC11 BRET IC50, BRET cell assay, Table 6): < 500 nM
